Results from paper doi:10.1101/2020.10.13.334797v1 (biorxiv, 2020).

Tests used:
Type in all cases: cell-based
[1] = target: hTRPV4 (full-length; hTRPV4WT) (Homo sapiens, UniProt Q9HBA0, S548V); test: calcium flux
[2] = target: hTRPV4 (full-length; hTRPV4WT) (Homo sapiens, UniProt Q9HBA0, F549A); test: calcium flux
[3] = target: hTRPV4 (full-length; hTRPV4WT) (Homo sapiens, UniProt Q9HBA0, N474Q); test: calcium flux
[4] = target: hTRPV4 (full-length; hTRPV4WT) (Homo sapiens, UniProt Q9HBA0, N474A); test: calcium flux
Sequence of hTRPV4 (full-length; hTRPV4WT) (Homo sapiens, UniProt Q9HBA0, N474A) (Q9HBA0 whole entry N474A): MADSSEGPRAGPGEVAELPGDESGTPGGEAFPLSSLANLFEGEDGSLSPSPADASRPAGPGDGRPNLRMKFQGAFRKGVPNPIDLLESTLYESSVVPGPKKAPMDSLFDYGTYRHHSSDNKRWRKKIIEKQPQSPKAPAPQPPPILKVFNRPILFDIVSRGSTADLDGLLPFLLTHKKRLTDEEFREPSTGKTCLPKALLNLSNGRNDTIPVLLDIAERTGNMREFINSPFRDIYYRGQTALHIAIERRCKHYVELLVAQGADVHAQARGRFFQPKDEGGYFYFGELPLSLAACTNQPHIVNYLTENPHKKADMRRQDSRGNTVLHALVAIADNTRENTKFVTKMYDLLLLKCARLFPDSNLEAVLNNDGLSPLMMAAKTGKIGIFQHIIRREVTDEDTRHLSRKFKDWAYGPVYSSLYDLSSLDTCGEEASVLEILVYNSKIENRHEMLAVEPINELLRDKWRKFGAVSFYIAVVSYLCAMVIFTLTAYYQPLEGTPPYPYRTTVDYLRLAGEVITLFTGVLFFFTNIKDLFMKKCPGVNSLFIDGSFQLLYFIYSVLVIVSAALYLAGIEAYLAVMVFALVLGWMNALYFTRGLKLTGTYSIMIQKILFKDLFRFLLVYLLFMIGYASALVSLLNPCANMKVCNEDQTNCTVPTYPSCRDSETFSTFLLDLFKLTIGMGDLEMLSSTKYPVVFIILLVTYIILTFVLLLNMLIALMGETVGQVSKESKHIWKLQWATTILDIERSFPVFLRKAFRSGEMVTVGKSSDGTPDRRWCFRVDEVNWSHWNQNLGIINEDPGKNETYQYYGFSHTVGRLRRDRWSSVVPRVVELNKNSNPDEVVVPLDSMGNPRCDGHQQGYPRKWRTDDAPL

[5] = target: hTRPV4 (full-length; hTRPV4WT) (Homo sapiens, UniProt Q9HBA0, Y556A); test: calcium flux
Sequence of hTRPV4 (full-length; hTRPV4WT) (Homo sapiens, UniProt Q9HBA0, Y556A) (Q9HBA0 whole entry Y556A): as the sequence (Q9HBA0 whole entry N474A) above, with A474N, Y556A counted along it

[6] = target: hTRPV4 (full-length; hTRPV4WT) (Homo sapiens, UniProt Q9HBA0, K535A); test: calcium flux
Sequence of hTRPV4 (full-length; hTRPV4WT) (Homo sapiens, UniProt Q9HBA0, K535A) (Q9HBA0 whole entry K535A): as the sequence (Q9HBA0 whole entry N474A) above, with A474N, K535A counted along it

[7] = target: hTRPV4 (full-length; hTRPV4WT) (Homo sapiens, UniProt Q9HBA0, L584M); test: calcium flux
Sequence of hTRPV4 (full-length; hTRPV4WT) (Homo sapiens, UniProt Q9HBA0, L584M) (Q9HBA0 whole entry L584M, the tested form may be a part): as the sequence (Q9HBA0 whole entry N474A) above, with A474N, L584M counted along it

[8] = target: truncated hTRPV4 (cryo-EM construct, residues 148-787 N651D) (Homo sapiens, UniProt Q9HBA0, N651D); test: two-electrode voltage clamp, Xenopus oocytes
Sequence of truncated hTRPV4 (cryo-EM construct, residues 148-787 N651D) (Q9HBA0 148-787 N651D): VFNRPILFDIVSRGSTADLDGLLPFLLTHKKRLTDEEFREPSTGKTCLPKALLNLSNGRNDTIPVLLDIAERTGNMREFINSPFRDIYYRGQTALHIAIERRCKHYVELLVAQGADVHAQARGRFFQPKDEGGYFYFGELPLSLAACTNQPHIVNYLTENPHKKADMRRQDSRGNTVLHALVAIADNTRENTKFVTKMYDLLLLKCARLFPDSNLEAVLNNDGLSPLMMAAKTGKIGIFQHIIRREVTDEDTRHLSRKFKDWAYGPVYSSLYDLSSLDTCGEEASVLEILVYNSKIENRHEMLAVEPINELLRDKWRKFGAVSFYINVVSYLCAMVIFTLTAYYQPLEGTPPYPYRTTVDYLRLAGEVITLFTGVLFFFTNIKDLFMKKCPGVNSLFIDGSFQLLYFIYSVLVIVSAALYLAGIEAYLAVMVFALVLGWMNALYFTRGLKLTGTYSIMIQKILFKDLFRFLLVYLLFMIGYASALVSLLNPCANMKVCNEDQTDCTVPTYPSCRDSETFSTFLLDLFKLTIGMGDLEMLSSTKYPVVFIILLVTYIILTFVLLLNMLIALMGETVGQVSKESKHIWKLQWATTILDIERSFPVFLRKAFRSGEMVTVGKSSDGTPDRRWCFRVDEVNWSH

[9] = target: hTRPV4 (full-length; hTRPV4WT) (Homo sapiens, UniProt Q9HBA0); test: calcium flux
Sequence of hTRPV4 (full-length; hTRPV4WT) (Homo sapiens, UniProt Q9HBA0) (Q9HBA0 whole entry): as the sequence (Q9HBA0 whole entry N474A) above, with A474N counted along it

[10] = target: hTRPV4 (full-length; hTRPV4WT) (Homo sapiens, UniProt Q9HBA0, Q550A); test: calcium flux
Sequence of hTRPV4 (full-length; hTRPV4WT) (Homo sapiens, UniProt Q9HBA0, Q550A) (Q9HBA0 whole entry Q550A): as the sequence (Q9HBA0 whole entry N474A) above, with A474N, Q550A counted along it

[11] = target: hTRPV4 (full-length; hTRPV4WT) (Homo sapiens, UniProt Q9HBA0, R594A); test: calcium flux
Sequence of hTRPV4 (full-length; hTRPV4WT) (Homo sapiens, UniProt Q9HBA0, R594A) (Q9HBA0 whole entry R594A): as the sequence (Q9HBA0 whole entry N474A) above, with A474N, R594A counted along it

Sequence of hTRPV4 (full-length; hTRPV4WT) (Homo sapiens, UniProt Q9HBA0, N474Q) (Q9HBA0 whole entry N474Q): as the sequence (Q9HBA0 whole entry N474A) above, with A474Q counted along it
Sequence of hTRPV4 (full-length; hTRPV4WT) (Homo sapiens, UniProt Q9HBA0, F549A) (Q9HBA0 whole entry F549A): as the sequence (Q9HBA0 whole entry N474A) above, with A474N, F549A counted along it
Sequence of hTRPV4 (full-length; hTRPV4WT) (Homo sapiens, UniProt Q9HBA0, S548V) (Q9HBA0 whole entry S548V): as the sequence (Q9HBA0 whole entry N474A) above, with A474N, S548V counted along it

EC50 [1]: 110 ± 18 nM
EC50 [2]: 9.8 ± 4.1 nM
EC50 [3]: > 25 µM
EC50 [4]: 540 ± 150 nM
EC50 [5]: 9.6 ± 4.3 nM
EC50 [6]: 7.4 ± 2.9 nM
EC50 [7]: 4 ± 1.7 nM
EC50 [8]: 8.43 µM
EC50 [9]: 1.21 ± 0.033 nM
EC50 [10]: 27 ± 13 nM
EC50 [11]: > 25 µM
SMILES: CC(C)C[C@H](NC(=O)c1cc2ccccc2s1)C(=O)N1CCN(C(=O)[C@H](CO)NS(=O)(=O)c2ccc(Cl)cc2Cl)CC1 [GSK1016790A]
